From US8980848B2, “Flavonoid dimers and their use” (The Hong Kong Polytechnic University, priority 2010, dated 2015) come the findings set out here.

For series [1], the system named is LCC6 cells. In words: Cell proliferation assay: paclitaxel on parental LCC6 cells without modulator. In kind it is cell-based. The conditions noted are these: Homo sapiens, LCC-6, no modulator, read-out: IC50 of paclitaxel of LCC6 in the absence of modulators. From the text:
Cell Proliferation Assay.

A short description of series [2]: Cytotoxicity of flavonoid dimers, L929 mouse fibroblast. In kind it is cell-based. The conditions noted are these: mouse, L929 fibroblast cells, IC50 of compound alone, 72 hrs, mouse fibroblast. In outline:
(§1)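 LCC6, LCC6MDR and L929 cells seeded at 1×10^4 cells/well and exposed to graded doses of flavonoid dimers. Incubation 72 hrs at 37° C., 5% CO2. Read-out: % survivors.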

In series [3] the test system is LCC6 cells. As to the kind of experiment: Doxorubicin efflux in LCC6 cells. In kind it is cell-based, human. To be noted: after 3 hrs. As to the method:
(§2) Influx and Efflux Studies. […] 0.15% of DMSO acted as a negative control. The cells were harvested after 0, 15, 30, 45, 75 min for determining the intracellular Doxorubycin concentration as described previously. […] The cells were then washed and further incubated in the presence or absence of compound 18 (1 or 3 μM). At 0, 15, 30, 60, 90, 120, 150 and 180 min, the cells were harvested for measuring the intracellular Doxorubycin concentration.
In the efflux experiments, both LCC6 and LCC6MDR were first pre-loaded with doxorubicin for 2 hrs, washed and the remaining doxorubicin was measured after 0, 15, 30, 60, 90, 120, 150 and 180 min. […] Thus efflux rate of LCC6MDR is higher than LCC6. At 1DM or 3 μM of 18, the doxorubicin efflux rate was unaltered in the wild type LCC6 cells. After 3 hrs, the intracellular doxorubicin levels of LCC cells at 1 μM (3122 FU, 71% of doxorubicin remained) and 3 μM (3103 FU, 71% of doxorubicin remained) were very close to that at 0 μM (2601 FU, 60% of doxorubicin remained), respectively (FIG. 3A).

A short description of series [4]: Cytotoxicity over LCC6, LCC6MDR and L929 cell lines. In kind it is cell-based, human, mouse. To be noted: human, mouse, LCC6MDR and L929 cell lines; cancer lines LCC6, LCC6MDR and/or L929.
In series [5] the test system is LCC6 cells. In words: Doxorubicin accumulation in LCC6 cells. To be noted: 1 μM. Format: cell-based, human. The source says:
Doxorubycin accumulation. […] […].

In series [6] the test system is Ld39 promastigotes (SSG-resistant). As to the kind of experiment: In vitro anti-promastigote activity, Ld39. Format: cell-based, Leishmania donovani. To be noted: Leishmania donovani, 72 h, read-out: Anti-promastigotes activity (IC50, μM) Ld39. In outline: (§3)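 L. donovani (LdAG83 wild type, SSG-resistant Ld39) and L. major Lm50122 promastigotes were seeded at 1×10^5 per well with a concentration series of compound.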

The next series has as its system Raw264.7 cells. As to the kind of experiment: Cytotoxicity, mouse macrophage Raw264.7. To be noted: Mus musculus, RAW264.7, 72 h. Format: cell-based. The method, boiled down:
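Raw264.7 (1×10^4 cells/well) and primary PEM cells (2×10^4 cells/well) in supplemented DMEM received graded compound doses and were incubated 72 h at 37 °C, 5% CO2. Percent survivors determined; cytotoxicity IC50 used for therapeutic index against antileishmanial IC50.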

The target in series [7] is T1, Pgp (LCC6MDR cells) (Homo sapiens, UniProt P08183). In words: Doxorubicin accumulation in LCC6MDR cells.
T1 sequence (P08183 whole entry): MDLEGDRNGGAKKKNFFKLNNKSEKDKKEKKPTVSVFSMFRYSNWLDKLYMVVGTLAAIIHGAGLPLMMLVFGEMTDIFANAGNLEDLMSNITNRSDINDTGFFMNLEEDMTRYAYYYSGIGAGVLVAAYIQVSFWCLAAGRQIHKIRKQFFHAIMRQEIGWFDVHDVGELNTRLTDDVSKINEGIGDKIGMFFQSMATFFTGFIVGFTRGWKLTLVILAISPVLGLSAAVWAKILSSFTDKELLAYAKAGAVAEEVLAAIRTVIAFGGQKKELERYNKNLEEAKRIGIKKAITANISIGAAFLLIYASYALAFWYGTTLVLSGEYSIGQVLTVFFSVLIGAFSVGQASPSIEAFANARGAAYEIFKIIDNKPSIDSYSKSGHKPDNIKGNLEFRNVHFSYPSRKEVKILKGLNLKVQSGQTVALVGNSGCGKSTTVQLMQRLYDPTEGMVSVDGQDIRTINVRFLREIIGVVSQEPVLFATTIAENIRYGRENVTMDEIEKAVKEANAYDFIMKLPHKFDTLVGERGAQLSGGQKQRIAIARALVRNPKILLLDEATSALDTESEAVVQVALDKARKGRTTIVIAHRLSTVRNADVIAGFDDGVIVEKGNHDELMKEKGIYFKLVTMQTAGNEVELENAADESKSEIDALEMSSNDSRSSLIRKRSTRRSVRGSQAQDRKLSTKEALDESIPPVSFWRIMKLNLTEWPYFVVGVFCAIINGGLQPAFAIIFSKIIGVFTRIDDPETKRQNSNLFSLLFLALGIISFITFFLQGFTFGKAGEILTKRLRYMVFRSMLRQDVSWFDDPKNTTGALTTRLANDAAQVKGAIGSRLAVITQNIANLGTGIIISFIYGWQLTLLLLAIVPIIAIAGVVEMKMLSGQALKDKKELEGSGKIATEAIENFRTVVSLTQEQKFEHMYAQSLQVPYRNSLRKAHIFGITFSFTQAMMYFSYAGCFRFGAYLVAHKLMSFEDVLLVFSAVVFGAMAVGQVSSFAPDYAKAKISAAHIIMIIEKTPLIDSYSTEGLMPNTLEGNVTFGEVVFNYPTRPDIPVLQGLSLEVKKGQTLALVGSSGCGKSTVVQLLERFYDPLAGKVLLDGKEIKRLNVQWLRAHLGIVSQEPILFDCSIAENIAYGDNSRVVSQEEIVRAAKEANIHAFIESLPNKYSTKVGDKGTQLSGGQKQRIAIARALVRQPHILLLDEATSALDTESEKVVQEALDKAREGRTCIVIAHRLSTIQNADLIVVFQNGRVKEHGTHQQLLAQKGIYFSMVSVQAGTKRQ
Series [8] relates to LCC6 cells. As to the kind of experiment: Doxorubicin influx in LCC6 cells. To be noted: after 75 min. Format: cell-based, human. As to the method:
as §2
(§4) Effect of Compound 18 on Doxorubicin Influx and Efflux of MDA435/LCC6MDR Cells. Experiments were performed to determine whether the increased accumulation of doxorubicin in LCC6MDR cells caused by 18 is due to potentiation of doxorubicin influx or inhibition of efflux.

Series [9] relates to LdAG83 promastigotes (wild type). As to the kind of experiment: In vitro anti-promastigote activity, LdAG83. Format: cell-based, Leishmania donovani. To be noted: Leishmania donovani, 72 h, read-out: Anti-promastigotes activity (IC50, μM) LdAG83. In outline:
as §3

The nature of series [10]: Tumor cell line cytotoxicity of flavonoid dimers, LCC6MDR. Format: cell-based, human. To be noted: human, LCC6MDR cells, IC50 of compound alone. The method, boiled down: as §1
Series [11] deals with T1, Pgp (LCC6MDR cells). In words: Cell proliferation assay: Pgp-modulating activity, reversal of anticancer drug resistance in LCC6MDR cells. To be noted: for EC50: EC50 of compounds for reversing anticancer drug resistance (nM), LCC6MDR.
Series [12] in a line: Tumor cell line cytotoxicity of flavonoid dimers, LCC6. Format: cell-based, human. To be noted: human, LCC6 cells, IC50 of compound alone. In outline:
as §1

Another series concerns LCC6MDR cells. In words: Doxorubicin influx in LCC6MDR cells. Format: cell-based, human. To be noted: for Intracellular doxorubicin level, influx: LCC6MDR, after 75 min. How it is done: as §2, §4

With `CC(=O)O[C@H]1C(=O)[C@@]2(C)[C@H]([C@H](OC(=O)c3ccccc3)[C@]3(O)C[C@H](OC(=O)[C@H](O)[C@@H](NC(=O)c4ccccc4)c4ccccc4)C(C)=C1C3(C)C)[C@]1(OC(C)=O)CO[C@@H]1C[C@@H]2O` [paclitaxel], in the series on LCC6 cells [1], the IC50 – broadly, the concentration needed to halve the response being measured – was 1.6 ± 0.3 nM.
In the case of `O=c1cc(-c2ccc(OCCOCCN(CCOCCOc3ccc(-c4cc(=O)c5ccccc5o4)cc3)Cc3ccccc3)cc2)oc2ccccc12` [Compound 18, 1,13-Bis[4′-(4H-chromen-4-on-2-yl)phenyl]-N-(benzyl)-1,4,10,13-tetraoxa-7-azamidecane], the IC50 at 72 h was 85 µM in [2], greater than 63000 nM in series [4], greater than 63 µM in series [10] and greater than 75 µM in [12]. Further, the Doxorubicin remained with LCC6 cells [3] (LCC6, 1 μM) is recorded as 71%; in the series on LCC6 cells [3] (LCC6, 3 μM), 71%. Besides, the “Intracellular doxorubicin level, efflux” value in the series with LCC6 cells [3] (LCC6, 1 μM) stood at 3122 FU; with LCC6 cells [3] (LCC6, 3 μM) it was 3103 FU. Moreover, the “Effect on intracellular doxorubicin accumulation in parental LCC6” value with LCC6 cells [5] was “does not increase”. Besides, the IC50 in series [6] was 12.3 ± 6 µM; in the series with Raw264.7 cells it was greater than 79000 nM; in [9] it was 8.4 ± 6.1 µM. The “Fold more active than verapamil in inhibiting doxorubicin transport activity of Pgp” value on Pgp (LCC6MDR cells) [7] was “roughly 16 fold”. In addition, the “Concentration to restore doxorubicin accumulation in LCC6MDR to levels of parental LCC6” value at Pgp (LCC6MDR cells) [7] (LCC6MDR) stood at 500 nM. Further, the “Intracellular doxorubicin level, influx” value with LCC6 cells [8] (LCC6, 1 μM) is reported as 0-1320 FU; in the series with LCC6 cells [8] (LCC6, 3 μM), 0-1035 FU; in the series with LCC6MDR cells (1 μM), 0-803 FU; with LCC6MDR cells (3 μM), 0-909 FU. In addition, the 50% effective concentration (EC50) (in general, the concentration giving half of the maximal effect) on Pgp (LCC6MDR cells) [11] (Daunorubicin) was 95 ± 25 nM; on Pgp (LCC6MDR cells) [11] (Doxorubicin), 131 ± 13 nM; at Pgp (LCC6MDR cells) [11] (Mitoxantrone), 90 ± 20 nM; at Pgp (LCC6MDR cells) [11] (Paclitaxel), 148 ± 18 nM; at Pgp (LCC6MDR cells) [11] (Vinblasinte, vinblastine), 173 ± 27 nM; on Pgp (LCC6MDR cells) [11] (Vincristine), 179 ± 32 nM. Further, the Therapeutic index at Pgp (LCC6MDR cells) [11] (IC50 of compounds for L929/EC50 of compounds for lowering paclitaxel drug resistance) amounted to 574.3. The “Effect on doxorubicin influx” value with LCC6MDR cells (1 or 3 μM, LCC6 and LCC6MDR) is given as “no effect on doxorubicin influx”.
